Eleven compounds from patent US9861680B2, “Immunomodulators” (BRISTOL-MYERS SQUIBB COMPANY, priority 2014, dated 2018) can be followed below.

Numbered stars: 1 amine (or outer) side, 2 acyl side, 3 side chain; on linkers, the order of the positions; unused ones are H or OH. Bridge positions count the residues as written; N and C are the ends. Square brackets hold non-standard residues; d marks the D form. Peptide text beside a SMILES is read from it. X1 = O=C(CN(CCC(F)(F)F)[*:1])[*:2]; Gly(N-2-aminoethyl) = NCCNCC(=O)O; Hyp = O=C(O)[C@@H]1C[C@@H](O)CN1; Gly(N-CH2CH2OH) = O=C(O)CNCCO; NMeNle = CCCC[C@H](NC)C(=O)O; NMeA = CN[C@@H](C)C(=O)O; Nphe = O=C(O)CNCc1ccccc1; Dab = NCC[C@H](N)C(=O)O; Nme = COCCNCC(=O)O; NEtG = CCNCC(=O)O

What is called IC50 is the concentration needed to halve the response being measured. A low value points to greater potency in that assay.

The target in one experiment is T1, PD-1-Ig binding to PD-L1-TVMV-His (PD-L1-His) (Homo sapiens, UniProt Q9NZQ7).
T1 construct: hPDL1(19-239)-TVMV-His; made in house; host or cells: HEK293T
T1 sequence (Q9NZQ7 with tags, fused parts or gaps): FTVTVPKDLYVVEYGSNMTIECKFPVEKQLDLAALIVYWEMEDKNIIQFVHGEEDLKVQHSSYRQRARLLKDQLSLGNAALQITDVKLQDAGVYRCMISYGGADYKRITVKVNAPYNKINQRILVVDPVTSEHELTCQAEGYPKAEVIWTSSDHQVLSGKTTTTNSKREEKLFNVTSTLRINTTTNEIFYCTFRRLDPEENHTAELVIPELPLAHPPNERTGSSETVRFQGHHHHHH
The experiment can be described thus: PD-1/PD-L1 Homogenous Time-Resolved Fluorescence (HTRF) binding assay. As to conditions: numeric value; PD-L1-His 10 nM, PD-1-Ig 20 nM. From the text: Methods for Testing the Ability of Macrocyclic Peptides to Compete for the Binding of Pd-1 to Pd-L1 Using Homogenous Time-Resolved Fluorescence (HTRF) Binding Assays
The ability of the macrocyclic peptides of the present disclosure to bind to PD-L1 was investigated using a PD-1/PD-L1 Homogenous Time-Resolved Fluorescence (HTRF) binding assay.
Homogenous Time-Resolved Fluorescence (HTRF) Assays of Binding of Soluble PD-1 to Soluble PD-L1. Soluble PD-1 and soluble PD-L1 refers to proteins with carboxyl-end truncations that remove the transmembrane-spanning regions and are fused to heterologous sequences, specifically the Fc portion of the human immunoglobuling G sequence (Ig) or the hexahistidine epitope tag (His). All binding studies were performed in an HTRF assay buffer consisting of dPBS supplemented with 0.1% (w/v) bovine serum albumin and 0.05% (v/v) Tween-20. For the PD-1-Ig/PD-L1-His binding assay, inhibitors were pre-incubated with PD-L1-His (10 nM final) for 15 m in 4 μl of assay buffer, followed by addition of PD-1-Ig (20 nM final) in 1 μl of assay buffer and further incubation for 15 m. PD-L1 fusion proteins from either human, cynomologous macaques, mouse, or other species were used. HTRF detection was achieved using europium crypate-labeled anti-Ig monoclonal antibody (1 nM final) and allophycocyanin (APC) labeled anti-His monoclonal antibody (20 nM final). Antibodies were diluted in HTRF detection buffer and 5 μl was dispensed on top of binding reaction. The reaction was allowed to equilibrate for 30 minutes and signal (665 nm/620 nm ratio) was obtained using an EnVision fluorometer. Additional binding assays were established between PD-1-Ig/PD-L2-His (20 and 5 nM, respectively), CD80-His/PD-L1-Ig (100 and 10 nM, respectively) and CD80-His/CTLA4-Ig (10 and 5 nM, respectively). Binding/competition studies between biotinylated Compound No. 71 and human PD-L1-His were performed as follows. Macrocyclic peptide inhibitors were pre-incubated with PD-L1-His (10 nM final) for 60 minutes in 4 μl of assay buffer followed by addition of biotinylated Compound No. 71 (0.5 nM final) in 1 μl of assay buffer. Binding was allowed to equilibrate for 30 minutes followed by addition of europium crypated labeled Streptavidin (2.5 pM final) and APC-labeled anti-His (20 nM final) in 5 μl of HTRF buffer. The reaction was allowed to equilibrate for 30 m and signal (665 nm/620 nm ratio) was obtained using an EnVision fluorometer.
Recombinant Proteins. Carboxyl-truncated human PD-1 (amino acids 25-167) with a C-terminal human Ig epitope tag [hPD-1 (25-167)-3S-IG] and human PD-L1 (amino acids 18-239) with a C-terminal His epitope tag [hPD-L1(19-239)-tobacco vein mottling virus protease cleavage site (TVMV)-His] were expressed in HEK293T cells and purified sequentially by recombinant Protein A affinity chromatography and size exclusion chromatography. Human PD-L2-His (Sino Biologicals), CD80-His (Sino Biologicals), CTLA4-Ig (RnD Systems) were all obtained through commercial sources.
Ranges are as follows: A=0.10-10 μM; B=0.01-0.099 μM; C=0.005-0.0099 μM.
For the compound `CCCC[C@H]1C(=O)N(C)[C@@H](CCCC)C(=O)N[C@@H](CC(C)C)C(=O)N[C@H](C(=O)NCC(N)=O)CSCC(=O)N[C@@H](Cc2ccc(O)cc2)C(=O)N(C)[C@@H](C)C(=O)N[C@@H](CC(N)=O)C(=O)N2CCC[C@H]2C(=O)N[C@@H](Cc2cnc[nH]2)C(=O)N[C@@H](CCC(=O)O)C(=O)N(CC(=O)O)CC(=O)N[C@@H](Cc2c[nH]c3ccccc23)C(=O)N[C@@H](CCN)C(=O)N[C@@H](Cc2c[nH]c3ccccc23)C(=O)N1C` [Example 3005], the concentration for half-maximal inhibition (IC50) was 0.03 µM.
Still for that read-out and setting: next, `CCCC[C@H]1C(=O)N(C)[C@@H](CCCC)C(=O)N[C@@H](CC(C)C)C(=O)N[C@H](C(=O)NCC(N)=O)CSCC(=O)N[C@@H](Cc2ccc(O)cc2)C(=O)N(C)[C@@H](C)C(=O)N[C@@H](CC(N)=O)C(=O)N(Cc2ccccc2)CC(=O)N[C@@H](Cc2cnc[nH]2)C(=O)N[C@@H](CCC(=O)O)C(=O)N2C[C@H](O)C[C@H]2C(=O)N[C@@H](Cc2c[nH]c3ccccc23)C(=O)N[C@@H](CCN)C(=O)N[C@@H](Cc2c[nH]c3ccccc23)C(=O)N1C` [Example 3008] ({CH2CO}-Y[NMeA]N[Nphe]HE[Hyp]W[Dab]W[NMeNle][NMeNle]LCG-NH2; thioether N-14): 0.2 µM; `CCCC[C@H]1C(=O)N(C)[C@@H](CCCC)C(=O)N[C@@H](CC(C)C)C(=O)N[C@H](C(=O)NCC(N)=O)CSCC(=O)N[C@@H](Cc2ccc(O)cc2)C(=O)N(C)[C@@H](C)C(=O)N[C@@H](CC(N)=O)C(=O)N2CCC[C@H]2C(=O)N[C@@H](Cc2cnc[nH]2)C(=O)N[C@@H](CCC(=O)O)C(=O)N(CCN)CC(=O)N[C@@H](Cc2c[nH]c3ccccc23)C(=O)N[C@@H](CCN)C(=O)N[C@@H](Cc2c[nH]c3ccccc23)C(=O)N1C` [Example 3011] ({CH2CO}-Y[NMeA]NPHE[Gly(N-2-aminoethyl)]W[Dab]W[NMeNle][NMeNle]LCG-NH2; thioether N-14): 0.00612 µM.

The experiment is the same for the next values; noted with them: range class; PD-L1-His 10 nM, PD-1-Ig 20 nM.
In the case of `CCCC[C@H]1C(=O)N(C)[C@@H](CCCC)C(=O)N[C@@H](CC(C)C)C(=O)N[C@H](C(=O)NCC(N)=O)CSCC(=O)N[C@@H](Cc2ccc(O)cc2)C(=O)N(C)[C@@H](C)C(=O)N[C@@H](CC(N)=O)C(=O)N2CCC[C@H]2C(=O)N[C@@H](Cc2cnc[nH]2)C(=O)N[C@@H](CCC(=O)O)C(=O)N(CC)CC(=O)N[C@@H](Cc2c[nH]c3ccccc23)C(=O)N[C@@H](CCN)C(=O)N[C@@H](Cc2c[nH]c3ccccc23)C(=O)N1C` [Example 3003] ({CH2CO}-Y[NMeA]NPHE[NEtG]W[Dab]W[NMeNle][NMeNle]LCG-NH2; thioether N-14), the IC50 lay within 0.01 to 0.099 µM.
The same measure, in the same setting: next, `CCCC[C@H]1C(=O)N(C)[C@@H](CCCC)C(=O)N[C@@H](CC(C)C)C(=O)N[C@H](C(=O)NCC(N)=O)CSCC(=O)N[C@@H](Cc2ccc(O)cc2)C(=O)N(C)[C@@H](C)C(=O)N[C@@H](CC(N)=O)C(=O)N2CCC[C@H]2C(=O)N[C@@H](Cc2cnc[nH]2)C(=O)N[C@@H](CCC(=O)O)C(=O)N(Cc2ccccc2)CC(=O)N[C@@H](Cc2c[nH]c3ccccc23)C(=O)N[C@@H](CCN)C(=O)N[C@@H](Cc2c[nH]c3ccccc23)C(=O)N1C` [Example 3004] ({CH2CO}-Y[NMeA]NPHE[Nphe]W[Dab]W[NMeNle][NMeNle]LCG-NH2; thioether N-14): 0.01 to 0.099 µM; `CCCC[C@H]1C(=O)N(C)[C@@H](CCCC)C(=O)N[C@@H](CC(C)C)C(=O)N[C@H](C(=O)NCC(N)=O)CSCC(=O)N[C@@H](Cc2ccc(O)cc2)C(=O)N(C)[C@@H](C)C(=O)N[C@@H](CC(N)=O)C(=O)N2CCC[C@H]2C(=O)N[C@@H](Cc2cnc[nH]2)C(=O)N[C@@H](CCC(=O)O)C(=O)N(CCOC)CC(=O)N[C@@H](Cc2c[nH]c3ccccc23)C(=O)N[C@@H](CCN)C(=O)N[C@@H](Cc2c[nH]c3ccccc23)C(=O)N1C` [Example 3006] ({CH2CO}-Y[NMeA]NPHE[Nme]W[Dab]W[NMeNle][NMeNle]LCG-NH2; thioether N-14): 0.01 to 0.099 µM.
Same read-out and setting: as for `CCCC[C@H]1C(=O)N(C)[C@@H](CCCC)C(=O)N[C@@H](CC(C)C)C(=O)N[C@H](C(=O)NCC(N)=O)CSCC(=O)N[C@@H](Cc2ccc(O)cc2)C(=O)N(C)[C@@H](C)C(=O)N[C@@H](CC(N)=O)C(=O)N2CCC[C@H]2C(=O)N[C@@H](Cc2cnc[nH]2)C(=O)N[C@@H](CCC(=O)O)C(=O)N(CCC(F)(F)F)CC(=O)N[C@@H](Cc2c[nH]c3ccccc23)C(=O)N[C@@H](CCN)C(=O)N[C@@H](Cc2c[nH]c3ccccc23)C(=O)N1C` [Example 3007] ({CH2CO}-Y[NMeA]NPHE[X1]W[Dab]W[NMeNle][NMeNle]LCG-NH2; thioether N-14), the figure is 0.01 to 0.099 µM; as for `CCCC[C@H]1C(=O)N(C)[C@@H](CCCC)C(=O)N[C@@H](CC(C)C)C(=O)N[C@H](C(=O)NCC(N)=O)CSCC(=O)N[C@@H](Cc2ccc(O)cc2)C(=O)N(C)[C@@H](C)C(=O)N[C@@H](CC(N)=O)C(=O)N(CCOC)CC(=O)N[C@@H](Cc2cnc[nH]2)C(=O)N[C@@H](CCC(=O)O)C(=O)N2C[C@H](O)C[C@H]2C(=O)N[C@@H](Cc2c[nH]c3ccccc23)C(=O)N[C@@H](CCN)C(=O)N[C@@H](Cc2c[nH]c3ccccc23)C(=O)N1C` [Example 3009] ({CH2CO}-Y[NMeA]N[Nme]HE[Hyp]W[Dab]W[NMeNle][NMeNle]LCG-NH2; thioether N-14), 0.01 to 0.099 µM; as for `CCCC[C@H]1C(=O)N(C)[C@@H](CCCC)C(=O)N[C@@H](CC(C)C)C(=O)N[C@H](C(=O)NCC(N)=O)CSCC(=O)N[C@@H](Cc2ccc(O)cc2)C(=O)N(C)[C@@H](C)C(=O)N[C@@H](CC(N)=O)C(=O)N(CCC(F)(F)F)CC(=O)N[C@@H](Cc2cnc[nH]2)C(=O)N[C@@H](CCC(=O)O)C(=O)N2C[C@H](O)C[C@H]2C(=O)N[C@@H](Cc2c[nH]c3ccccc23)C(=O)N[C@@H](CCN)C(=O)N[C@@H](Cc2c[nH]c3ccccc23)C(=O)N1C` [Example 3010] ({CH2CO}-Y[NMeA]N[X1]HE[Hyp]W[Dab]W[NMeNle][NMeNle]LCG-NH2; thioether N-14), 0.01 to 0.099 µM.
As to `CCCC[C@H]1C(=O)N(C)[C@@H](CCCC)C(=O)N[C@@H](CC(C)C)C(=O)N[C@H](C(=O)NCC(N)=O)CSCC(=O)N[C@@H](Cc2ccc(O)cc2)C(=O)N(C)[C@@H](C)C(=O)N[C@@H](CC(N)=O)C(=O)N2CCC[C@H]2C(=O)N[C@@H](Cc2cnc[nH]2)C(=O)N[C@@H](CCC(=O)O)C(=O)N(CCO)CC(=O)N[C@@H](Cc2c[nH]c3ccccc23)C(=O)N[C@@H](CCN)C(=O)N[C@@H](Cc2c[nH]c3ccccc23)C(=O)N1C` [Example 3012] ({CH2CO}-Y[NMeA]NPHE[Gly(N-CH2CH2OH)]W[Dab]W[NMeNle][NMeNle]LCG-NH2; thioether N-14), the IC50 is 0.01 to 0.099 µM.
`CCCC[C@H]1C(=O)N(C)[C@@H](CCCC)C(=O)N[C@@H](CC(C)C)C(=O)N[C@H](C(=O)NCC(N)=O)CSCC(=O)N[C@@H](Cc2ccc(O)cc2)C(=O)N(C)[C@@H](C)C(=O)N[C@@H](CC(N)=O)C(=O)N(CC)CC(=O)N[C@@H](Cc2cnc[nH]2)C(=O)N[C@@H](CCC(=O)O)C(=O)N2C[C@H](O)C[C@H]2C(=O)N[C@@H](Cc2c[nH]c3ccccc23)C(=O)N[C@@H](CCN)C(=O)N[C@@H](Cc2c[nH]c3ccccc23)C(=O)N1C` [Example 3013] ({CH2CO}-Y[NMeA]N[NEtG]HE[Hyp]W[Dab]W[NMeNle][NMeNle]LCG-NH2; thioether N-14) displayed an IC50 of 0.01 to 0.099 µM.
